Source: patent US9708314B2, “Heterocyclic amide compound” (NISSAN CHEMICAL INDUSTRIES, LTD., priority 2013, dated 2017)

Assays:
Format in all cases: in vivo
[1] = tested on: Beta vulgaris ssp. vulgaris; assay: Test Example 4: effect on crop by application to foliage (diluvial soil, plastic box); conditions: application to foliage, application herbicide amount 320 g/ha
Outline: (§1)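 Emulsion-formulated compound, diluted to a predetermined g/ha dose, applied by small sprayer to leaves and stems of 14-day-old seedlings grown in sterilized diluvial soil. Effect rated on 0–5 herbicidal-ratio scale three weeks on.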

Glycine max = assay: as above; conditions: application to foliage, application herbicide amount 320 g/ha
Outline: as §1

Brassica campestris L. = assay: as above; conditions: application to foliage, application herbicide amount 320 g/ha
Outline: as §1

Zea mays = assay: as above; conditions: application to foliage, application herbicide amount 320 g/ha
Outline: as §1

Triticum aestivum = assay: as above; conditions: application to foliage, application herbicide amount 320 g/ha
Outline: as §1

[2] = tested on: directly sowed Oryza sativa; assay: as above; conditions: application to foliage, application herbicide amount 320 g/ha
Outline: as §1

[3] = tested on: directly sowed Oryza sativa; assay: Test Example 3: effect on crop by application to foliage (Wagner pot, water depth 0.1-0.5 cm); conditions: Nineteenth Table; application herbicide amount 320 g/ha
Outline: (§2)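 Visual 0–5 rating of herbicidal ratio, taken 3 weeks after foliar spray of a diluted emulsion formulation at rates expressed as g/ha. Plants had been sown in alluvial soil under 0.1–0.5 cm water and grown 14 days at 25–30 °C under glass before application.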

Galium spurium = assay: Test Example 4: herbicidal effect by application to foliage (diluvial soil, plastic box); conditions: application to foliage, application herbicide amount 320 g/ha
Outline: as §1

Alopecurus myosuroides = assay: as above; conditions: application to foliage, application herbicide amount 320 g/ha
Outline: as §1

[4] = tested on: Echinochloa crus-galli var. crus-galli; assay: as above; conditions: application to foliage, application herbicide amount 320 g/ha
Outline: as §1

Stellaria media = assay: as above; conditions: application to foliage, application herbicide amount 320 g/ha
Outline: as §1

Abutilon theophrasti = assay: as above; conditions: application to foliage, application herbicide amount 320 g/ha
Outline: as §1

Avena fatua = assay: as above; conditions: application to foliage, application herbicide amount 320 g/ha
Outline: as §1

Veronica persica = assay: as above; conditions: application to foliage, application herbicide amount 320 g/ha
Outline: as §1

Lolium multiflorum Lam. = assay: as above; conditions: application to foliage, application herbicide amount 320 g/ha
Outline: as §1

Setaria viridis = assay: as above; conditions: application to foliage, application herbicide amount 320 g/ha
Outline: as §1

Chenopodium album = assay: as above; conditions: application to foliage, application herbicide amount 320 g/ha
Outline: as §1

Digitaria ciliaris = assay: as above; conditions: application to foliage, application herbicide amount 320 g/ha
Outline: as §1

Apera spica-venti. = assay: as above; conditions: application to foliage, application herbicide amount 320 g/ha
Outline: as §1

Amaranthus retroflexus = assay: as above; conditions: application to foliage, application herbicide amount 320 g/ha
Outline: as §1

[5] = tested on: Echinochloa crus-galli var. crus-galli; assay: Test Example 3: herbicidal effect by application to foliage (Wagner pot, water depth 0.1-0.5 cm); conditions: Nineteenth Table; application herbicide amount 320 g/ha
Outline: as §2

Cyperus difformis = assay: as above; conditions: Nineteenth Table; application herbicide amount 320 g/ha
Outline: as §2

Leptochloa chinensis = assay: as above; conditions: Nineteenth Table; application herbicide amount 320 g/ha
Outline: as §2

How did the “f (Beta vulgaris ssp. vulgaris) effect on crop” value [1] turn out when Cc1nnc(NC(=O)c2ccc(C(F)(F)F)n3c(CS(=O)(=O)CC(F)(F)F)nnc23)o1 [1-039] was run?
The value was 2 (Herbicidal ratio of 20% or more and less than 40%).

And the “c (Glycine max) effect on crop” value (Glycine max)?
The value was 0 (Herbicidal ratio of 5% or less (almost no effect)).

What about the “g (Brassica campestris L.) effect on crop” value (Brassica campestris L.) of the same compound?
Its value is 0 (Herbicidal ratio of 5% or less (almost no effect)).

And the “b (Zea mays) effect on crop” value (Zea mays)?
Its value is 0 (Herbicidal ratio of 5% or less (almost no effect)).

And the “e (Triticum aestivum) effect on crop” value (Triticum aestivum)?
The value was 0 (Herbicidal ratio of 5% or less (almost no effect)).

What about the “d (directly sowed Oryza sativa) effect on crop” value [2] of the same compound?
The value was 0 (Herbicidal ratio of 5% or less (almost no effect)).

What about the “b (directly sowed Oryza sativa) effect on crop grade” value [3] of the same compound?
The value was 2 (Herbicidal ratio of 20% or more and less than 40%).

And the “Q (Galium spurium) herbicidal effect” value (Galium spurium)?
The value was 0 (Herbicidal ratio of 5% or less (almost no effect)).

What about the “J (Alopecurus myosuroides) herbicidal effect” value (Alopecurus myosuroides) of the same compound?
Its value is 0 (Herbicidal ratio of 5% or less (almost no effect)).

What about the “H (Echinochloa crus-galli var. crus-galli) herbicidal effect” value [4] of the same compound?
Its value is 4 (Herbicidal ratio of 70% or more and less than 90%).

What about the “P (Stellaria media) herbicidal effect” value (Stellaria media) of the same compound?
The value was 0 (Herbicidal ratio of 5% or less (almost no effect)).

And the “M (Abutilon theophrasti) herbicidal effect” value (Abutilon theophrasti)?
The value was 0 (Herbicidal ratio of 5% or less (almost no effect)).

What about the “I (Avena fatua) herbicidal effect” value (Avena fatua) of the same compound?
Its value is 0 (Herbicidal ratio of 5% or less (almost no effect)).

What about the “R (Veronica persica) herbicidal effect” value (Veronica persica) of the same compound?
Its value is 0 (Herbicidal ratio of 5% or less (almost no effect)).

What about the “K (Lolium multiflorum Lam.) herbicidal effect” value (Lolium multiflorum Lam.) of the same compound?
Its value is 0 (Herbicidal ratio of 5% or less (almost no effect)).

And the “G (Setaria viridis) herbicidal effect” value (Setaria viridis)?
The value was 0 (Herbicidal ratio of 5% or less (almost no effect)).

What about the “O (Chenopodium album) herbicidal effect” value (Chenopodium album) of the same compound?
The value was 4 (Herbicidal ratio of 70% or more and less than 90%).

What about the “F (Digitaria ciliaris) herbicidal effect” value (Digitaria ciliaris) of the same compound?
The value was 2 (Herbicidal ratio of 20% or more and less than 40%).

What about the “L (Apera spica-venti.) herbicidal effect” value (Apera spica-venti.) of the same compound?
Its value is 0 (Herbicidal ratio of 5% or less (almost no effect)).

And the “N (Amaranthus retroflexus) herbicidal effect” value (Amaranthus retroflexus)?
Its value is 1 (Herbicidal ratio of 5% or more and less than 20%).

What about the “H (Echinochloa crus-galli var. crus-galli) herbicidal ratio grade” value [5] of the same compound?
Its value is 3 (Herbicidal ratio of 40% or more and less than 70%).

And the “E (Cyperus difformis) herbicidal ratio grade” value (Cyperus difformis)?
The value was 3 (Herbicidal ratio of 40% or more and less than 70%).

And the “D (Leptochloa chinensis) herbicidal ratio grade” value (Leptochloa chinensis)?
Its value is 3 (Herbicidal ratio of 40% or more and less than 70%).

For Cc1nnc(NC(=O)c2ccc(C(F)(F)F)n3c(-c4ccc(C(F)(F)F)cc4)nnc23)o1 [1-045], which “f (Beta vulgaris ssp. vulgaris) effect on crop” value [1] is on record?
Its value is 3 (Herbicidal ratio of 40% or more and less than 70%).

What about the “c (Glycine max) effect on crop” value (Glycine max) of the same compound?
Its value is 0 (Herbicidal ratio of 5% or less (almost no effect)).

And the “g (Brassica campestris L.) effect on crop” value (Brassica campestris L.)?
Its value is 3 (Herbicidal ratio of 40% or more and less than 70%).

What about the “b (Zea mays) effect on crop” value (Zea mays) of the same compound?
Its value is 0 (Herbicidal ratio of 5% or less (almost no effect)).

What about the “e (Triticum aestivum) effect on crop” value (Triticum aestivum) of the same compound?
The value was 0 (Herbicidal ratio of 5% or less (almost no effect)).

And the “d (directly sowed Oryza sativa) effect on crop” value [2]?
Its value is 1 (Herbicidal ratio of 5% or more and less than 20%).

What about the “b (directly sowed Oryza sativa) effect on crop grade” value [3] of the same compound?
Its value is 0 (Herbicidal ratio of 5% or less (almost no effect)).

What about the “Q (Galium spurium) herbicidal effect” value (Galium spurium) of the same compound?
The value was 2 (Herbicidal ratio of 20% or more and less than 40%).

And the “J (Alopecurus myosuroides) herbicidal effect” value (Alopecurus myosuroides)?
Its value is 0 (Herbicidal ratio of 5% or less (almost no effect)).

And the “H (Echinochloa crus-galli var. crus-galli) herbicidal effect” value [4]?
Its value is 2 (Herbicidal ratio of 20% or more and less than 40%).

What about the “P (Stellaria media) herbicidal effect” value (Stellaria media) of the same compound?
The value was 2 (Herbicidal ratio of 20% or more and less than 40%).

What about the “M (Abutilon theophrasti) herbicidal effect” value (Abutilon theophrasti) of the same compound?
The value was 4 (Herbicidal ratio of 70% or more and less than 90%).

And the “I (Avena fatua) herbicidal effect” value (Avena fatua)?
The value was 0 (Herbicidal ratio of 5% or less (almost no effect)).

What about the “R (Veronica persica) herbicidal effect” value (Veronica persica) of the same compound?
Its value is 3 (Herbicidal ratio of 40% or more and less than 70%).

What about the “K (Lolium multiflorum Lam.) herbicidal effect” value (Lolium multiflorum Lam.) of the same compound?
Its value is 0 (Herbicidal ratio of 5% or less (almost no effect)).

And the “G (Setaria viridis) herbicidal effect” value (Setaria viridis)?
The value was 1 (Herbicidal ratio of 5% or more and less than 20%).

What about the “O (Chenopodium album) herbicidal effect” value (Chenopodium album) of the same compound?
Its value is 5 (Herbicidal ratio of 90% or more (almost completely withered)).

And the “F (Digitaria ciliaris) herbicidal effect” value (Digitaria ciliaris)?
Its value is 3 (Herbicidal ratio of 40% or more and less than 70%).

And the “L (Apera spica-venti.) herbicidal effect” value (Apera spica-venti.)?
The value was 0 (Herbicidal ratio of 5% or less (almost no effect)).

And the “N (Amaranthus retroflexus) herbicidal effect” value (Amaranthus retroflexus)?
Its value is 4 (Herbicidal ratio of 70% or more and less than 90%).

And the “H (Echinochloa crus-galli var. crus-galli) herbicidal ratio grade” value [5]?
Its value is 1 (Herbicidal ratio of 5% or more and less than 20%).

And the “E (Cyperus difformis) herbicidal ratio grade” value (Cyperus difformis)?
The value was 4 (Herbicidal ratio of 70% or more and less than 90%).

What about the “D (Leptochloa chinensis) herbicidal ratio grade” value (Leptochloa chinensis) of the same compound?
The value was 3 (Herbicidal ratio of 40% or more and less than 70%).
